Measured values from ChEMBL document CHEMBL1201862, “PubChem BioAssay data set” (2004).
Activity calls are given as the source filed them.

Experiments:
[1] = inhibitors of Ran–importin-beta complex, dose response, biochemical, plate reader, dry powder (AID 493048); parameters: species or system Homo sapiens
[2] = target: T1, Oxysterols receptor LXR-beta (Homo sapiens, UniProt P55055); experiment: LXR agonists, Gal4 luciferase reporter, dose response, counter-screen for ssDAF-12 agonist project, cell-based, luminescence, HEK293, S. stercoralis campaign (AID 720737); format: functional; conditions: read-out: IC50 (the source's name)
T1 sequence (P55055 whole entry): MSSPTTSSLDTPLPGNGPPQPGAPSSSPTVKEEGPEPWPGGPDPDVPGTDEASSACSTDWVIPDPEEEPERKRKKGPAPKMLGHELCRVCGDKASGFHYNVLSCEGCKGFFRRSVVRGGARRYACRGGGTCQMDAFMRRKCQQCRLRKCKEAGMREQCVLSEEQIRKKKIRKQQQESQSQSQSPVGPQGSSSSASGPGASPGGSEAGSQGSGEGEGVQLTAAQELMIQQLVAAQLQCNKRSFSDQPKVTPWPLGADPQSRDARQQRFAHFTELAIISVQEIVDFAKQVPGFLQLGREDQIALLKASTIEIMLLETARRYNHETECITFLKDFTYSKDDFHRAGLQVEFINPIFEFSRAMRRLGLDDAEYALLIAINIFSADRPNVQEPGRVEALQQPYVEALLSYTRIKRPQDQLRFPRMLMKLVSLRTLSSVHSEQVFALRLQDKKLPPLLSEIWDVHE

[3] = target: T2, Histone-lysine N-methyltransferase NSD2 (Homo sapiens, UniProt O96028); format: biochemical
T2 sequence (O96028 whole entry): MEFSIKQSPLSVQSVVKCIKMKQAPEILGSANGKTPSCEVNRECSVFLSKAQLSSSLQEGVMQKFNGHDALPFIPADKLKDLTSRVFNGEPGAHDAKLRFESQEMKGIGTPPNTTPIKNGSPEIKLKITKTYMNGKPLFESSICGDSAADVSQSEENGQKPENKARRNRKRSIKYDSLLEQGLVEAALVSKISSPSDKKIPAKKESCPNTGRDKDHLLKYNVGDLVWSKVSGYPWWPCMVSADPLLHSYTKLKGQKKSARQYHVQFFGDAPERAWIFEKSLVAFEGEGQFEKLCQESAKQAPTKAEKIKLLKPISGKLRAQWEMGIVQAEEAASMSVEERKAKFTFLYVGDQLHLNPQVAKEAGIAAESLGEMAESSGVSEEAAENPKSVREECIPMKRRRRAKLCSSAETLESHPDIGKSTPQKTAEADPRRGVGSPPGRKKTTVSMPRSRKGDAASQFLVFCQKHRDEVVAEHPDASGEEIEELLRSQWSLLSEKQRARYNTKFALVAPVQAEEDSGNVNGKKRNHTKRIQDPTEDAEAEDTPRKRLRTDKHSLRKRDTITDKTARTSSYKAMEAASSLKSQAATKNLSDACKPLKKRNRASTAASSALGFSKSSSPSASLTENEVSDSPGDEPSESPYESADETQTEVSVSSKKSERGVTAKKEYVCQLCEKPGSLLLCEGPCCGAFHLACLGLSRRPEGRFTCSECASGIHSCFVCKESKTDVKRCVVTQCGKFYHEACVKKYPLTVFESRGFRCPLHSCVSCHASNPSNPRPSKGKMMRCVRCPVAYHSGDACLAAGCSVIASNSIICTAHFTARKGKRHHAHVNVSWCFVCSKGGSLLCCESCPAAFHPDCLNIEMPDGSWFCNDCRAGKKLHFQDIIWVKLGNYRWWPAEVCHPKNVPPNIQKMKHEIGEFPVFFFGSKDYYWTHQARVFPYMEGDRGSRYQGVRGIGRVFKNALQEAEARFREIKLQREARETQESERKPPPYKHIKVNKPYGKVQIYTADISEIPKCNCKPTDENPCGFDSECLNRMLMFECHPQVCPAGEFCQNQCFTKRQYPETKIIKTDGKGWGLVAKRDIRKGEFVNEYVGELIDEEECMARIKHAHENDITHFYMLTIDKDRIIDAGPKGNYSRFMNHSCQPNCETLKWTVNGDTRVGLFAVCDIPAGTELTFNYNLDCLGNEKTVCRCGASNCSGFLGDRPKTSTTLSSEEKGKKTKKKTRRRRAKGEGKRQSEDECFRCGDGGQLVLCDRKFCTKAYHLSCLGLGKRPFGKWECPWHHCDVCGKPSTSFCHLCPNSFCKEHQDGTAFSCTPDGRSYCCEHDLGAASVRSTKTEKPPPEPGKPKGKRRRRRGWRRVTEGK

[4] = target: Paired box protein Pax-8 (Homo sapiens, UniProt Q06710); experiment: inhibitors of PAX8-driven TPO luciferase reporter, dose response, RMG-I cells, cherry-pick (AID 687027); format: functional, cell-based;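 note: luciferase reporter driven by Pax8 target thyroperoxidase promoter measured by SteadyGlo luminescence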
[5] = HeLa cell cytotoxicity, dose response, cytotoxicity control for MgcRacGAP inhibitor project (AID 624300); format: functional
[6] = target: T3, DNA repair protein RAD52 homolog (Homo sapiens, UniProt P43351); format: functional, biochemical
T3 sequence (P43351 whole entry): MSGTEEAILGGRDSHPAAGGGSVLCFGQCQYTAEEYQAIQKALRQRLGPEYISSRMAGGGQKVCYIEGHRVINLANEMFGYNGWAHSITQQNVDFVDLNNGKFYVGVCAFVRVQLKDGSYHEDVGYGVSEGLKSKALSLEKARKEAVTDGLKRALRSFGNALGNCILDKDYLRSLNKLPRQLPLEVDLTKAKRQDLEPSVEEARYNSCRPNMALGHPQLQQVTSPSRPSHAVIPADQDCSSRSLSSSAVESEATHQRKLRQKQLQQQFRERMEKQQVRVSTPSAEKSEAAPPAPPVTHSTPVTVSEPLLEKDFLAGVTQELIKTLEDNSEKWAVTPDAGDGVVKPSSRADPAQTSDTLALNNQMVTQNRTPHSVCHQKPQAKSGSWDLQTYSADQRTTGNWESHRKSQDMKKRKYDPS

[7] = control 3'UTR Renilla luciferase suppression, dose response, counter-screen for Shn3 inhibitor project, cell-based, Clone20-Shn3RL, cherry-picked (AID 624133); format: functional
[8] = Cytotoxicity screening for potential Inhibitors of Bacterial Capsule Biogenesis. [Related pubchem assays (depositor defined):AID488970]; format: functional
[9] = Shn3 3'UTR reporter inhibitors, dose response, cell-based, Clone20 osteoblasts, firefly luciferase, cherry-picked (AID 624132); format: functional;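 note: firefly luciferase luminescence from reporter carrying the Shn3 3'UTR in osteoblasts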
[10] = Luminescence-based cell-based high throughput dose response assay to identify activators of the DAF-12 from the parasite S. stercoralis (ssDAF-12).; format: functional
[11] = target: T4, Rac GTPase-activating protein 1 (Homo sapiens, UniProt Q9H0H5); experiment: MgcRacGAP GTPase-activating activity inhibitors, confirmation, biochemical, ADP Hunter fluorescence, primary and confirmatory (AID 624330); format: functional
T4 sequence (Q9H0H5 whole entry): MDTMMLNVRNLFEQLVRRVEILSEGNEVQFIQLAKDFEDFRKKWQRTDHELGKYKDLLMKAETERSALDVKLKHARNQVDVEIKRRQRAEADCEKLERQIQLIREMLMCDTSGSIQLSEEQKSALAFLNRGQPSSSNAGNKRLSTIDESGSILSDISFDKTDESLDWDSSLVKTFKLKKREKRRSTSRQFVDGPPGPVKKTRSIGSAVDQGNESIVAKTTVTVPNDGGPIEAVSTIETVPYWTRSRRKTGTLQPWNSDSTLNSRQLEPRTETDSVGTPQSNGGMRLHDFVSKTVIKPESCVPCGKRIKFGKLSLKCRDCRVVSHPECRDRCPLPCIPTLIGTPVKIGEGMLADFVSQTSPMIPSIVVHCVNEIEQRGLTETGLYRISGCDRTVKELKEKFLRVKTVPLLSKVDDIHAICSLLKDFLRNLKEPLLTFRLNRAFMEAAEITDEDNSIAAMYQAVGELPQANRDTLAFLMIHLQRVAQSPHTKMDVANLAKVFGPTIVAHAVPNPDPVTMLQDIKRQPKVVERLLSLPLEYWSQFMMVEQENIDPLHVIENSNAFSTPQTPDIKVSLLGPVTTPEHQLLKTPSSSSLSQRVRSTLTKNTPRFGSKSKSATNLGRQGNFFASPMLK

[12] = HepG2 cell cytotoxicity, dose response, cytotoxicity control for Shn3 inhibitor project, CellTiter-Glo, cherry-picked (AID 624134); format: functional, cell-based
[13] = target: Phosphoethanolamine/phosphocholine phosphatase (Homo sapiens, UniProt Q8TCT1); experiment: SAR assay for compounds that inhibit PHOSPHO1. [Related pubchem assays (depositor defined):AID1545, AID1565, AID1574]
[14] = target: T5, Mannose-6-phosphate isomerase (Homo sapiens, UniProt P34949); experiment: PMI enzyme inhibitors, confirmation, biochemical, fluorescence intensity (AID 1535)
T5 sequence (P34949 whole entry): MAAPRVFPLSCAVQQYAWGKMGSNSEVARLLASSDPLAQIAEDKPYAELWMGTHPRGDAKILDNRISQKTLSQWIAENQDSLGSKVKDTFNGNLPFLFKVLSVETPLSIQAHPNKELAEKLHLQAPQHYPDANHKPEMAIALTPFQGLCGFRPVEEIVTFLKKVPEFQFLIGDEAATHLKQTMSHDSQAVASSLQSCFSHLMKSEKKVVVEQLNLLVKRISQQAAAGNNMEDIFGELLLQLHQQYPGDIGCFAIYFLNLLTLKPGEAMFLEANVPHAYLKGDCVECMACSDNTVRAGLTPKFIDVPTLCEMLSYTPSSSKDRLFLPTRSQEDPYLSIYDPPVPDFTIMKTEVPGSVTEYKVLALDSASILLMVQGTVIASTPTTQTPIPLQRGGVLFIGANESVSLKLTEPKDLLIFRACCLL

[15] = target: Phosphomannomutase 2 (Homo sapiens, UniProt O15305); experiment: Counter screen SAR assay for PMM2 inhibitors via a fluorescence intensity assay. [Related pubchem assays (depositor defined):AID1545, AID1574]
Sequence of Phosphomannomutase 2 (O15305 whole entry): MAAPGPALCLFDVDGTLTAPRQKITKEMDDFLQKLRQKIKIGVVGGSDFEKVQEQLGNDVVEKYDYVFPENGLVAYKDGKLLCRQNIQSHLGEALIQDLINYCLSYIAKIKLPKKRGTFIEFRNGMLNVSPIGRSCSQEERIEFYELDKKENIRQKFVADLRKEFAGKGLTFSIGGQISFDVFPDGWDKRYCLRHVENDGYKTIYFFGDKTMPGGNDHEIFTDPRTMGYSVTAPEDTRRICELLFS

Sequence of Phosphoethanolamine/phosphocholine phosphatase (Q8TCT1 whole entry): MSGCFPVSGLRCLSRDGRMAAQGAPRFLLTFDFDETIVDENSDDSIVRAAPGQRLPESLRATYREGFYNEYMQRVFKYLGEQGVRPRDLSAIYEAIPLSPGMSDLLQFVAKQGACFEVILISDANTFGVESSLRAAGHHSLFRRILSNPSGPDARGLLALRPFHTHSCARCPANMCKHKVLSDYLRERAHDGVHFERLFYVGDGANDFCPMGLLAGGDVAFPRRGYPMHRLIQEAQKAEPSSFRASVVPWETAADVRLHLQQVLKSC
Sequence of Paired box protein Pax-8 (Q06710 whole entry): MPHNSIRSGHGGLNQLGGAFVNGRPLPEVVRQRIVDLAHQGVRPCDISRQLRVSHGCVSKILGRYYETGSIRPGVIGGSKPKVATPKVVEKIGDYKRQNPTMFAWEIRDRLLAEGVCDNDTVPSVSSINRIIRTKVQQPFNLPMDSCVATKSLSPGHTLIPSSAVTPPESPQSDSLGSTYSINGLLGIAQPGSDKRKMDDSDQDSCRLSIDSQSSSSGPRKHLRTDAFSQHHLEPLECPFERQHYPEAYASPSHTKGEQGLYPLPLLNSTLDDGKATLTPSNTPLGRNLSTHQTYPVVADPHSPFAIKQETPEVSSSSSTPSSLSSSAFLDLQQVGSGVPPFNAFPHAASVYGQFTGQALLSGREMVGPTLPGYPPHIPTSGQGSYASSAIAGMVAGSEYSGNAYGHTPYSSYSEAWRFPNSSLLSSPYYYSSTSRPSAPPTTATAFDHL

Cc1ccc(S(=O)(=O)c2cc3c(=O)n4cccc(C)c4nc3n(C3CCCCC3)c2=N)cc1
AC50 [1]: 410 µM (active)

CCN(CC)CCCNc1[nH]c2ccccc2c2nc3ccc(OC)cc3c1-2
EC50 [2]: > 67.5 µM (inactive)
AC50 [3]: > 20 µM (inactive)
AC50 [4]: 6.91 µM (active)
CC50 [5]: 15.1 µM (active)
AC50 [6]: < 0.15 µM (active)
AC50 [7]: 11.6 µM (active)
CC50 [8]: 1.41 µM (active)
AC50 [9]: 12.3 µM (active)
IC50 [10]: > 67.5 µM (inactive)
IC50 [11]: 31.7 µM (active)
AC50 [12]: 4.9 µM (active)

O=c1c2ccccc2sn1-c1ccc(F)c(Cl)c1
IC50 [13]: 1.79 µM (inactive)
IC50 [14]: > 50 µM (inactive)
IC50 [15]: > 100 µM (inactive)
